Assay results published in patent publication US20260062422A1 (Halda Therapeutics OpCo, Inc., priority 2022, published 2026).

Columns and labels:
[1] = tested on: T-Rex 293 cell line SC cells lacking increased expression of progesterone receptor isoform B protein; assay: Cellular growth inhibition, T-Rex 293 SC cells without doxycycline, Example 45; assay type: cell-based; details: T-Rex 293 SC cells not exposed to doxycycline, 72 hours treatment, CellTiter-Glo 2.0
BRD4-BD1 = target: T1, BRD4-BD1 (Homo sapiens, UniProt O60885); assay: bromoKdELECT assay for binding affinity to BRD4-BD1; details: Table 6
T1 construct: made in house; host or cells: T7 phage grown in an E. coli host derived from BL21

[2] = Cellular growth inhibition, T-Rex 293 SC cells with doxycycline (progesterone receptor isoform B induced), Example 45; assay type: cell-based; details: progesterone receptor isoform B induced with 10 ng/mL doxycycline, 72 hours, CellTiter-Glo 2.0, Table 11

Structure (SMILES)	Kd (BRD4-BD1) [nM]	GI50 [1] [nM]	GI50 [2] [nM]
Cc1sc2c(c1C)C(c1ccc(CCCOC3CCN(c4ncc(C(=O)N[C@H]5C(C)(C)[C@H](Oc6ccc(C#N)c(Cl)c6)C5(C)C)cn4)CC3)cc1)=N[C@@H](C)c1nnc(C)n1-2 [Compound I-228, N-[3-(3-chloro-4-cyano-phenoxy)-2,2,4,4-tetramethyl-cyclobutyl]-2-[4-[3-[4-[(9S)-4,5,9,13-tetramethyl-3-thia-1,8,11,12-tetrazatricyclo [8.3.0.02,6]trideca-2(6),4,7,10,12-pentaen-7-yl]phenyl]propoxy]-1-piperidyl]pyrimidine-5-carboxamide]	500 to 2500	500 to 1500	< 500
Cc1sc2c(c1C)C(c1ccc(Cl)cc1)=N[C@H](CC(=O)NCCOCCOCCOCCOCCOCCOCCOC1CCN(c3ncc(C(=O)N[C@H]4C(C)(C)[C@H](Oc5ccc(C#N)c(Cl)c5)C4(C)C)cn3)CC1)c1nnc(C)n1-2 [Compound I-9]	500 to 2500	1500 to 3000	< 500
Cc1sc2c(c1C)C(c1ccc(CCCOC3CCN(c4ncc(C(=O)N[C@H]5C(C)(C)[C@H](Oc6ccc(C#N)c(Cl)c6)C5(C)C)cn4)CC3)cc1)=N[C@@H](Cc1ncco1)c1nnc(C)n1-2 [Compound I-131, N-[3-(3-chloro-4-cyano-phenoxy)-2,2,4,4-tetramethyl-cyclobutyl]-2-[4-[3-[4-[(9S)-4,5,13-trimethyl-9-(oxazol-2-ylmethyl)-3-thia-1,8,11,12-tetrazatricyclo[8.3.0.02,6]trideca-2(6),4,7,10,12-pentaen-7-yl]phenyl]propoxy]-1-piperidyl]pyrimidine-5-carboxamide]	> 2500	< 500	< 500
CCNC(=O)C[C@@H]1N=C(c2ccc(N3CCN(CC4CCN(c5ncc(C(=O)N[C@H]6C(C)(C)[C@H](Oc7ccc(C#N)c(Cl)c7)C6(C)C)cn5)CC4)CC3)cc2)c2c(sc(C)c2C)-n2c(C)nnc21 [Compound I-105, N-[3-(3-chloro-4-cyano-phenoxy)-2,2,4,4-tetramethyl-cyclobutyl]-2-[4-[[4-[4-[(9S)-9-[2-(ethylamino)-2-oxo-ethyl]-4,5,13-trimethyl-3-thia-1,8,11,12-tetrazatricyclo[8.3.0.02,6]trideca-2(6),4,7,10,12-pentaen-7-yl]phenyl]piperazin-1-yl]methyl]-1-piperidyl]pyrimidine-5-carboxamide]	50 to 500	< 500	< 500

The next lines start with results.

Kd (BRD4-BD1) [nM]	Structure (SMILES)	GI50 [1] [nM]	GI50 [2] [nM]
50 to 500	Cc1sc2c(c1C)C(c1ccc(Cl)cc1)=N[C@@H](CC(=O)NCCOCCOCCOCCOCCN(C)c1ncc(C(=O)N[C@H]3C(C)(C)[C@H](Oc4ccc(C#N)c(Cl)c4)C3(C)C)cn1)c1nnc(C)n1-2 [Compound I-3, N-((1r,3r)-3-(3-chloro-4-cyanophenoxy)-2,2,4,4-tetramethylcyclobutyl)-2-((1-((S)-4-(4-chlorophenyl)-2,3,9-trimethyl-6H-thieno[3,2-f][1,2,4]triazolo[4,3-a][1,4]diazepin-6-yl)-2-oxo-6,9,12,15-tetraoxa-3-azaheptadecan-17-yl)(methyl)amino)pyrimidine-5-carboxamide]	1500 to 3000	< 500
50 to 500	CCNC(=O)C[C@@H]1N=C(c2ccc(OCCOC3CCN(c4ncc(C(=O)N[C@H]5C(C)(C)[C@H](Oc6ccc(C#N)c(Cl)c6)C5(C)C)cn4)CC3)cc2)c2c(sc(C)c2C)-n2c(C)nnc21 [Compound I-60, N-((1r,3r)-3-(3-chloro-4-cyanophenoxy)-2,2,4,4-tetramethylcyclobutyl)-2-(4-(2-(4-((S)-6-(2-(ethylamino)-2-oxoethyl)-2,3,9-trimethyl-6H-thieno[3,2-f][1,2,4]triazolo[4,3-a][1,4]diazepin-4-yl)phenoxy)ethoxy)piperidin-1-yl)pyrimidine-5-carboxamide]	< 500	< 500
